Laboratory results as given in ChEMBL document CHEMBL1127141, “Monocyclic -lactam inhibitors of human leukocyte elastase. Stereospecific synthesis and activity of 3,4-disubstituted-2-azetidinones” (Bioorg Med Chem Lett, 1993).

Legend:
[1] = target: T1, Neutrophil elastase (Homo sapiens) (UniProt P08246); assay: Compound was evaluated for the inhibitory activity against Human leukocyte elastase
T1 sequence (whole entry): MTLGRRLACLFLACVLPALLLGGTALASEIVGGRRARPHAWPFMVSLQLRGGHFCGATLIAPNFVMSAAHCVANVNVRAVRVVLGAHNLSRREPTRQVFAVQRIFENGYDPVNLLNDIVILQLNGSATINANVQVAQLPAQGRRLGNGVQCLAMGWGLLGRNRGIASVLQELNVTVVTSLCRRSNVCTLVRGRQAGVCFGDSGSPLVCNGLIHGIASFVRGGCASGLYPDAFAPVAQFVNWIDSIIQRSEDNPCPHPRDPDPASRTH

Neutrophil elastase = target: T2, Neutrophil elastase (Homo sapiens, UniProt P08246); assay: Compound was evaluated for the inhibitory activity against Human leukocyte elastase; […]
T2 sequence (P08246 whole entry): T1 sequence (whole entry)

Row | K obs / 1 [1] [M⁻¹ s⁻¹] | Ki (Neutrophil elastase) [µM] | Structure (SMILES)
1 | 2480 | – | CCC1C(=O)N(C(=O)NCc2ccccc2)C1Oc1ccc(C(=O)O)cc1 (trans isomer)
2 | – | 5.6 | CC[C@H]1C(=O)N(C(=O)NCc2ccccc2)[C@H]1Oc1ccc(C(=O)O)cc1
3 | 383 | – | CC[C@@H]1C(=O)N(C(=O)NCc2ccccc2)[C@@H]1Oc1ccc(C(=O)O)cc1
4 | 424 | – | CC[C@@H]1C(=O)N(C(=O)NCc2ccccc2)[C@H]1Oc1ccc(C(=O)O)cc1
